| melting point | Structure (SMILES) |
| --- | --- |
| 245 to 247 °C | N#Cc1cccc(-c2ccc3c(c2)C2(CCCCC2)OC(=O)N3)c1 [Example 106, 3-(1,2-Dihydro-2-oxospiro[4H-3,1-benzoxazine-4,1-cyclohexan]-6-yl)-benzonitrile] |
| 250 to 253 °C | N#Cc1cc(F)cc(-c2ccc3c(c2)C2(CCCCC2)OC(=O)N3)c1 [Example 107, 3-(1,2-Dihydro-2-oxospiro[4H-3,1-benzoxazine-4,1-cyclohexan]-6-yl)-5-fluorobenzonitrile] |
| 230 to 232 °C | N#Cc1cc(-c2ccc3c(c2)C2(CCCCC2)OC(=O)N3)cs1 [Example 108, 4-(1,2-Dihydro-2-oxospiro[4H-3,1-benzoxazine-4,1-cyclohexan]-6-yl)2-thiophenecarbonitrile] |
| 160 to 162 °C | CCc1cc(C#N)sc1-c1ccc2c(c1)C(C)(C)OC(=O)N2 [Example 111, 5(4,4-Dimethyl-2-oxo-1,4-dihydro-2H-benzo[d][1,3]oxazin-6-yl)-4-ethyl-thiophene-2-carbonitrile] |
| 160 to 162 °C | CCCc1cc(C#N)sc1-c1ccc2c(c1)C(C)(C)OC(=O)N2 [Example 112, 5-(4,4-Dimethyl-2-oxo-1,4-dihydro-2H-benzo[d][1,3]oxazin-6-yl)4-n-propyl-thiophene-2-carbonitrile] |
| 167 to 168 °C | CCCCc1cc(C#N)sc1-c1ccc2c(c1)C(C)(C)OC(=O)N2 [Example 113, 5-(4,4-Dimethyl-2-oxo-1,4-dihydro-2H-benzo[d][1,3]oxazin-6-yl)4-n-butyl-thiophene-2-carbonitrile] |
| 188 to 190 °C | CC1(C)OC(=O)Nc2ccc(-c3cccc(CC#N)c3)cc21 [Example 118, 3-(4,4Dimethyl-2-oxo-1,4-dihydro-2H-benzo[d][1,3]-oxazin-6-yl)phenylacetonitrile] |
| 257 to 260 °C | CC1(C)OC(=O)Nc2ccc(-c3ccc(C#N)o3)cc21 [Example 119, 5-(4,4Dimethyl-2-oxo-1,4-dihydro-2H-benzo[d][1,3]oxazin-6-yl)-furan-2-carbonitrile] |
| 192 to 198 °C | CC1(C)OC(=O)Nc2ccc(-c3cccc(C#N)c3F)cc21 [Example 120, 3-(4,4-Dimethyl-2-oxo-1,4-dihydro-2H-benzo[d][1,3]oxazin-6-yl)-2fluoro-benzonitrile] |
| 145 to 146 °C | COc1cccc(-c2ccc3c(c2)C2(CCC2)OC(=O)N3)c1 [Example 122, 6-(3-Methoxyphenyl)spiro[4H-3,1-benzoxazine-4,1-cyclobutan]-2(1H)-one] |
| 194 to 195 °C | CC1(C)OC(=O)Nc2c(Br)cc(-c3ccc(F)c(Cl)c3)cc21 [Example 123, 8-Bromo-6-(3-chloro-4-fluorophenyl)-4,4-dimethyl-1,4-dihydro-2H-3,1-benzoxazin-2-one] |
| 216 to 217 °C | CC1(C)OC(=O)Nc2c(Br)cc(-c3cc(F)cc(C#N)c3)cc21 [Example 124, 3-(8Bromo-4,4-dimethyl-2-oxo-1,4-dihydro-2H-3,1-benzoxazin-6-yl)-5-fluorobenzonitrile] |
| 235 to 236 °C | CC1(C)OC(=O)Nc2c(Br)cc(-c3ccc(F)c(C#N)c3)cc21 [Example 125, 5-(8-Bromo-4,4-dimethyl-2-oxo-1,4-dihydro-2H-3,1-benzoxazin-6-yl)-2-fluorobenzonitrile] |
| 142 to 143 °C | CN1C(=O)OC(C)(C)c2cc(-c3cccc(Br)c3)ccc21 [Example 126, 6-(3-Bromophenyl)-1,4,4-trimethyl-1,4-dihydro-2H-3,1-benzoxazin-2-one] |
| 160 to 161 °C | CC1OC(=O)Nc2ccc(-c3cccc(F)c3)cc21 (stereo not shown) [Example 127, 6-(3-Fluorophenyl)-4-methyl-1,4-dihydro-2H-3,1-benzoxazin-2-one] |
| 252 to 253 °C | COc1cc(-c2cc(F)cc(C#N)c2)cc2c1NC(=O)OC2(C)C [Example 128, 3-(4,4-Dimethyl-8-methoxy-2-oxo-1,4-dihydro-2H-3,1-benzoxazin-6-yl)-5-fluorobenzonitrile] |
| 197 to 198 °C | CC1(C)OC(=O)Nc2c(O)cc(-c3cc(F)cc(C#N)c3)cc21 [Example 129, 3-(4,4-Dimethyl-8-hydroxy-2-oxo-1,4-dihydro-2H-3,1-benzoxazin-6yl)-5-fluorobenzonitrile] |
| 166 to 167 °C | CC1(C)OC(=O)Nc2ccc(-c3cccc(F)c3F)cc21 [Example 130, 6-(2,3-Difluoro-phenyl)-4,4dimethyl-1,4-dihydro-benzo[d][1,3]oxazin-2-one] |
| 154 to 155 °C | CCN1C(=O)OC(C)(C)c2cc(-c3cc(F)cc(C#N)c3)ccc21 [Example 131, 3-(1-Ethyl-4,4-dimethyl-2-oxo-1,4-dihydro-2H-benzo[d][1,3]oxazin-6-yl)-5-fluoro-benzonitrile] |
| 210 to 212.5 °C | CC1(C)OC(=O)Nc2ccc(-c3cccc(CC#N)n3)cc21 [Example 132, [6-(4,4-dimethyl-2-oxo-1,4dihydro-2H-3,1-benzoxazin-6-yl)pyridin-2-yl]acetonitrile] |
| 218 to 220 °C | CC1(C)OC(=O)Nc2ccc(-c3cc(F)cc(CC#N)c3)cc21 [Example 133, 3-(4,4Dimethyl-2-oxo-1,4-dihydro-2H-benzo[d][1,3]-oxazin-6-yl)-5-fluoro-phenylacetonitrile] |
| 184 to 187 °C | CC1(C)OC(=O)Nc2ccc(-c3cc(CC#N)ccc3F)cc21 [Example 134, 3-(4,4-Dimethyl-2-oxo-1,4-dihydro2H-benzo[d][1,3]-oxazin-6-yl)-4-fluoro-phenylacetonitrile] |
| 253 to 256 °C | CC1(C)OC(=O)Nc2ccc(-c3ccc(CC#N)c(F)c3)cc21 [Example 135, 4-(4,4Dimethyl-2-oxo-1,4-dihydro-2H-benzo[d][1,3]oxazin-6yl)-2-fluorophenylacetonitrile] |
| 176 to 179 °C | CC1(C)OC(=O)Nc2ccc(-c3ccccc3CC#N)cc21 [Example 136, 2-(4,4-Dimethyl 2-oxo-1,4-dihydro-2H-benzo[d][1,3]-oxazin-6-yl)phenylacetonitrile] |
| 245 to 247 °C | CC(=O)Nc1ccc(-c2ccc3c(c2)C(C)(C)OC(=O)N3)cc1F [Example 137, N-[4-(4,4-Dimethyl-2-oxo-1,4-dihydro-2H-3,1-benzoxazin-6-yl)-2fluoro-phenyl]-acetamide] |
| 210 to 211 °C | COc1ccc(-c2ccc3c(c2)C(C)(C)OC(=O)N3)cc1F [Example 138, 6-(3-Fluoro-4-methoxy-phenyl)4,4-dimethyl-1,4-dihydro-benzo[d][1,3]-oxazin-2-one] |
| 257 to 259 °C | CC1(C)OC(=O)Nc2ccc(-c3ccc(N)nc3)cc21 [Example 142, 6-(6-Amino-pyridin-3-yl)-4,4-dimethyl-1,4-dihydro-benzo[d][1,3]oxazine-2-one] |
| 262 to 263 °C | CC1(C)OC(=O)Nc2ccc(-c3coc(C=O)c3)cc21 [Example 144, 4-(4,4-Dimethyl-2-oxo-1,4-dihydro-2H-benzo[d][1,3]oxazin-6-yl)-furan-2-carbaldehyde] |

Reference: patent US6444668B1 (Wyeth, priority 1999, dated 2002)
